Laboratory results taken from ChEMBL document CHEMBL3751809, “Symmetric 4,4'-(piperidin-4-ylidenemethylene)bisphenol derivatives as novel tunable estrogen receptor (ER) modulators” (Bioorg Med Chem, 2016).
Active and inactive are the calls of the source. No cut-off for these calls is given here.

Assays:
[1] = biological target: T1, Estrogen receptor (Homo sapiens) (UniProt P03372); assay: Displacement of [6,7-3H]17beta-estradiol from recombinant human ERalpha ligand binding domain at 0.4 to 4 uM incubated for 16 hrs by scintillation counting analysis
T1 sequence (whole entry): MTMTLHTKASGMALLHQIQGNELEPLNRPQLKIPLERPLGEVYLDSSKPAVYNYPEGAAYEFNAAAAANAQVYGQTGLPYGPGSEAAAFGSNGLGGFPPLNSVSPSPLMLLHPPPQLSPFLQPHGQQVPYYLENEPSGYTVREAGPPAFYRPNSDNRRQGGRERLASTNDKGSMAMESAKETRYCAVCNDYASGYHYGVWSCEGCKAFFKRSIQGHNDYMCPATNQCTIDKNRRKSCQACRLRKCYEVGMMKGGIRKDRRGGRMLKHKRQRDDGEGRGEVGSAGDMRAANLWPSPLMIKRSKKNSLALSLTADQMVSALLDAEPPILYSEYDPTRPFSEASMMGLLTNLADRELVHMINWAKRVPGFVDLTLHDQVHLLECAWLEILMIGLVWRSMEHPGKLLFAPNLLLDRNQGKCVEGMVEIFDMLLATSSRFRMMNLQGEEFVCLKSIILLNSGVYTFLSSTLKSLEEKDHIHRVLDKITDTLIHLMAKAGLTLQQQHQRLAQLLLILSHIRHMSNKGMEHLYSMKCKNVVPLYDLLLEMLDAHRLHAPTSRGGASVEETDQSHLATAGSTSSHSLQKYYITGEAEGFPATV

[2] = biological target: T1, Estrogen receptor (Homo sapiens); assay: Antagonist activity at ERalpha in human MCF7 cells assessed as inhibition of 17beta-estradiol-mediated cell proliferation incubated for 5 days by WST-8 assay; type: cell-based
[3] = biological target: T1, Estrogen receptor (Homo sapiens); assay: Agonist activity at ERalpha in human MCF7 cells assessed as induction of cell proliferation incubated for 5 days by WST-8 assay; type: cell-based
[4] = biological target: T1, Estrogen receptor (Homo sapiens); assay: Displacement of [6,7-3H]17beta-estradiol from recombinant human ERalpha ligand binding domain incubated for 16 hrs by scintillation counting analysis

Structure (SMILES)	inhibition [1]	further results
Oc1ccc(C(=C2CCNCC2)c2ccc(O)cc2)cc1	inactive	–
CC(=O)N1C(C)(C)CC(=C(c2ccc(O)cc2)c2ccc(O)cc2)CC1(C)C	Active	inhibition [2]: inactive; Activity [3]: Dose-dependent effect
CC1(C)CC(=C(c2ccc(O)cc2)c2ccc(O)cc2)CC(C)(C)N1	Active	–
CCOC(=O)N1CCC(=C(c2ccc(O)cc2)c2ccc(O)cc2)CC1	–	inhibition [4]: Dose-dependent effect

More lines, main results first:

inhibition [1]	Structure (SMILES)	further results
inactive	CN1CCC(=C(c2ccc(O)cc2)c2ccc(O)cc2)CC1	–
inactive	CC(=O)N1CCC(=C(c2ccc(O)cc2)c2ccc(O)cc2)CC1	–
